Data taken from patent publication US20230000813A1, “COMPOUND FOR THE TREATMENT OF BOVINE OR SWINE RESPIRATORY DISEASE” (Intervet Inc., priority 2016, published 2023).
≈ marks a conversion by molar mass, not a printed value. Where “and” joins values, the source holds several entries; their conditions need not be identical. Equal values may be shown once. Read-outs that look alike come from different tables or passages of the source.

Columns and labels:
[1] = system: Acinetobacter baumanii AB 15919 (IV369-2012, dermatitis field isolate); assay: MIC, broth-microdilution (CLSI VET01-A4); assay type: cell-based; conditions: strain AB 15919
Method in brief: (§1)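 Broth microdilution per CLSI VET01-A4 with doubling dilution series of compound. MIC taken as lowest concentration giving no visible turbidity by unaided eye, interpreted per CLSI VET01-S3.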

[2] = system: Acinetobacter baumanii AB 16496 (ATCC 19606, reference strain); assay: MIC, broth-microdilution (CLSI VET01-A4); assay type: cell-based; conditions: strain AB 16496
Method in brief: as §1

[3] = system: Staphylococcus aureus SA 5816 (2139, mastitis field isolate); assay: MIC, broth-microdilution (CLSI VET01-A4); assay type: cell-based; conditions: strain SA 5816
Method in brief: as §1

[4] = system: Staphylococcus aureus SA 6114 (ATCC 29213, reference strain); assay: MIC, broth-microdilution (CLSI VET01-A4); assay type: cell-based; conditions: strain SA 6114
Method in brief: as §1

[5] = system: Mannheimia haemolytica MH 12180 (KLI-02944, BRD field isolate); assay: MIC, broth-microdilution (CLSI VET01-A4); assay type: cell-based; conditions: strain MH 12180
Method in brief: as §1

[6] = system: Pasteurella multocida PM 14426 (0006-439, BRD field isolate, macrolide-resistant); assay: MIC, broth-microdilution (CLSI VET01-A4); assay type: cell-based; conditions: strain PM 14426, macrolide-resistant
Method in brief: as §1

[7] = system: Mannheimia haemolytica MH 13065 (XB0446-6003.9, BRD field isolate); assay: MIC, broth-microdilution (CLSI VET01-A4); assay type: cell-based
Method in brief: (§2)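 MIC read by eye as lowest compound concentration without visible growth (no turbidity), interpreted per CLSI VET01-S3. Doubling-dilution broth-microdilution trays, run according to CLSI VET01-A4.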

[8] = system: Mannheimia haemolytica MH 13093 (XB0472-6014.1, BRD field isolate); assay: MIC, broth-microdilution (CLSI VET01-A4); assay type: cell-based
Method in brief: as §2

[9] = Plasma and tissue concentrations and pharmacokinetics in infected calves (Example 8); assay type: in vivo, Holstein black pied cattle calves
Protocol: Three animals each were treated one hour after infection by subcutaneous (SC) administration of Compound 329 in an aqueous 30% (w/v) Captisol® solution for injection at a dose of 10 mg/kg BW.
Food consumption was measured. Single individual blood samples were collected from the 12 animals at the following time points: D-1 (predose), 30 minutes, 2, 4, 6, 24 h and at D2 (ca. 45 h) after administration. After the day 2 blood sampling, the infected cattle were slaughtered. The lungs were weighted. Lung states and lung scores were observed morphologically.
At necropsy from animals treated with test items or the positive control, samples of epithelial lining fluid (ELF), lung tissue, and additionally tissue of liver and kidney were collected. From each lung two bacteriological swaps were taken from the left and right bronchus.
Epithelial lining fluid was collected by inserting sterile paper strips caudally behind the tracheal bifurcation directly onto the bronchial mucous membrane in the left and right bronchus and allowed to moisten with bronchial fluid. The paper strip was left in place (resting on the bronchial mucosa) for approximately 1 minute before being placed back into the plastic container.
From each lung two tissue samples were collected by clipping from at least two locations, one from morphologically unchanged tissue, one from the edge of pathomorphologically changed areas.
Plasma, ELF, lung tissue and additional tissue samples were analyzed for concentrations of Compound 329 and Enrofloxacin/Ciprofloxacin respectively using a HPLC-MS/MS method.
An analysis of the measured plasma concentrations of C.

[10] = system: 20 isolates of Histophilus (H.) somni; assay: MIC50/MIC90, broth-microdilution, European respiratory tract isolates; assay type: cell-based
Method in brief: (§3)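 Isolates came from the respiratory tract of diseased swine and cattle in several European countries and were epidemiologically unrelated. MICs were determined by broth microdilution with doubling dilutions per CLSI VET01-A4, interpreted per VET01-S3. MIC is the lowest concentration with no visible turbidity.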

[11] = system: 20 isolates of Actinobacillus (A.) pleuropneumoniae; assay: as above; assay type: cell-based
Method in brief: as §3

[12] = system: 40 isolates of Mannheimia (M.) haemolytica; assay: as above; assay type: cell-based
Method in brief: as §3

[13] = system: 40 isolates of Pasteurella (P.) multocida; assay: as above; assay type: cell-based
Method in brief: as §3

[14] = system: 20 isolates of Bordetella (B.) bronchiseptica; assay: as above; assay type: cell-based
Method in brief: as §3

[15] = system: Pasteurella multocida PM 6267 (P 2225 (L386), reference strain, mouse infection strain); assay: MIC, broth-microdilution (CLSI VET01-A4); assay type: cell-based
Method in brief: (§4)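 Read-out is visual: the MIC is the lowest compound concentration at which no turbidity is seen by eye. Trays carried a doubling dilution series, with interpretation following CLSI VET01-S3.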

[16] = system: Mannheimia haemolytica MH 10720 (154, BRD field isolate); assay: MIC, broth-microdilution (CLSI VET01-A4); assay type: cell-based
Method in brief: as §4

[17] = system: Pasteurella multocida PM 10775 (080130003051, BRD field isolate); assay: MIC, broth-microdilution (CLSI VET01-A4); assay type: cell-based
Method in brief: as §4

[18] = SC single 10 mg/kg in 30% Captisol, individual animals and mean, 10 mg/kg
[19] = plasma, SC 10 mg/kg, mean, Phoenix WinNonlin

Structure (SMILES): CC(C)(N)C(NC(=O)c1ccc(C#Cc2ccc(CNC3CC3)cc2)cc1)C(=O)NO (stereo not drawn) [C. 329]
- MIC [1]: 16 µg/mL (≈ 38 µM)
- MIC [2]: >16 µg/mL
- MIC [3]: >16 µg/mL
- MIC [4]: >16 µg/mL
- MIC [5]: 0.5 µg/mL (≈ 1.19 µM)
- MIC [6]: ≤0.016 µg/mL
- MIC [7]: 0.8 µM (≈ 0.336 µg/mL)
- MIC [8]: 1.6 µM (≈ 0.673 µg/mL)
- compound concentrations in the tissue samples ([9]; SC 10 mg/kg, compared with plasma, in words): above the plasma concentration
- detection in plasma and section tissue samples ([9]; SC 10 mg/kg, in words): detected at high concentrations
- Concentration, Plasma 0.5 h [9, 18]: 2340 ng/mL and 1520 ng/mL and 1280 ng/mL
- Concentration, Plasma 2 h [9, 18]: 1930 ng/mL and 1410 ng/mL and 2330 ng/mL
- Concentration, Plasma 4 h [9, 18]: 1200 ng/mL and 856 ng/mL and 1310 ng/mL
- Concentration, Plasma 6 h [9, 18]: 692 ng/mL and 928 ng/mL and 718 ng/mL
- Concentration, Plasma 24 h [9, 18]: 146 ng/mL and 187 ng/mL and 176 ng/mL
- Concentration, Plasma 48 h [9, 18]: 60.5 ng/mL and 57.4 ng/mL and 85.2 ng/mL
- Concentration, Tissue (48 h) Kidney [9, 18]: 22800 ng/mL and 25500 ng/mL and 17100 ng/mL
- Concentration, Tissue (48 h) Liver [9, 18]: 7760 ng/mL and 7850 ng/mL and 5130 ng/mL
- Concentration, Tissue (48 h) Lung [9, 18]: 8290 ng/mL and 9410 ng/mL and 7570 ng/mL
- Concentration, Tissue (48 h) ELF ([9]; epithelial lining fluid, SC single 10 mg/kg in 30% Captisol, individual animals and mean, 10 mg/kg): 320 ng/mL and 356 ng/mL and 1370 ng/mL
- AUClast [9, 19]: 19434 ng·h/mL
- Cmax [9, 19]: 2063 ng/mL
- HL_Lambda_z (Half life time) [9, 19]: 11.1 h
- MRTlast (Mean retention time till last measured value) [9, 19]: 9.7 h
- Tmax [9, 19]: 1.0 h
- Vz_F_obs [9, 19]: 7.8 L/kg
- MIC50 [10]: 0.25 µg/mL (≈ 0.595 µM)
- MIC90 [10]: 0.25 µg/mL (≈ 0.595 µM)
- MIC50 [11]: 0.5 µg/mL (≈ 1.19 µM)
- MIC90 [11]: 0.5 µg/mL (≈ 1.19 µM)
- MIC50 [12]: 0.5 µg/mL (≈ 1.19 µM)
- MIC90 [12]: 1 µg/mL (≈ 2.38 µM)
- MIC50 [13]: 0.032 µg/mL (≈ 0.0761 µM)
- MIC90 [13]: 0.032 µg/mL (≈ 0.0761 µM)
- MIC50 [14]: 2 µg/mL (≈ 4.76 µM)
- MIC90 [14]: 4 µg/mL (≈ 9.51 µM)
- MIC PM 6267 ([15]; Pasteurella multocida PM 6267): <=0.1 μM
- MIC ([15]; strain PM 6267): ≤0.016 µg/mL
- MIC ([16]; Mannheimia haemolytica MH 10720, read-out: MIC MH 10720): 0.4 µM
- MIC ([16]; strain MH 10720): 0.5 µg/mL
- MIC PM 10775 ([17]; Pasteurella multocida PM 10775): <=0.1 μM
- MIC ([17]; strain PM 10775): ≤0.016 µg/mL
